Literature values in US20240122968A1, “ENHANCED NITRATE COMPOSITIONS AND METHODS OF USE” (ThermoLife International, LLC, priority 2019, published 2024).
Where two headings read alike, the source gives them in different places.

System: blood pressure

[Zn] [Zinc]
effect on blood pressure (high doses): increase blood pressure

[Ca+2] [calcium]
effect on blood pressure (even at doses of 1.5 g per day (Weinberger et al.)): no notable effects on blood pressure
